For data set [1] the following is noted: Sr; cited from earlier work.
For data set [2] the following is noted: Mn; cited from earlier work.
For data set [3] the following is noted: Ca; cited from earlier work.
For data set [4] the following is noted: Zn; cited from earlier work.
In data set [5] the test system is S. epidermidis RP62A biofilms. The data set is described as follows: RP62A biofilms on polystyrene visualized with crystal violet (FIG. 3A, 3C, 4, 7, 8). It is filed as cell-based. Conditions: RP62A on polystyrene, FIG. 3A. On the procedure:
(§1) FIG. 3. (A) S. epidermidis RP62A biofilms formed on polystyrene and were visualized with crystal violet; addition of the Zn^2+ chelator DTPA (≧30 μM) inhibits biofilm formation. Representative wells have been scanned (bottom). Untreated (“RP62A”) and vehicle (“HCl”) controls are shown. Error bars show standard deviation (* indicates p<0.05 relative to untreated control; n=3); (B) Methicillin-resistant S. aureus USA300 biofilms form on fibronectin-coated plates but are inhibited by addition of DTPA (≧30 μM). (*: p<0.05; n=4); (C) Addition of 5-20 μM ZnCl2 at a minimal inhibitory dose of DTPA (30 μM) rescues biofilm formation by RP62A.
FIG. 4. […] (*: p<0.05 relative to RP62A control at the relevant Zn^2+ concentration; n=3); (B) Dose response of biofilm inhibition by MBP-Brpt1.5 at a fixed 1 mM ZnCl2 concentration. (*: p<0.0005; n=3); (C) The “zinc zipper” model for intercellular adhesion in staphylococcal biofilms mediated by zinc-dependent self-association of G5 domains.
FIG. 7. […] All data at 30 μM DTPA show statistically significant decreases compared to no-treatment control (RP62A). Statistically significant increases over the 0 μM MnCl2/30 μM DTPA datapoint are marked with an asterisk (*).
To test the physiological role of Zn^2+-mediated G5 adhesion in the formation of staphylococcal biofilms, both S. epidermidis and S. aureus biofilms were grown in culture in the presence or absence of the Zn^2+ chelator diethylenetriaminepentaacetic acid (DTPA). DTPA was non-toxic at all concentrations tested (up to 100 μM). S. epidermidis strain RP62A formed robust biofilms when cultured in media alone, but biofilm growth was inhibited by non-toxic doses of DTPA (≧30 μM) (FIG. 3A).
To determine whether Zn^2+-dependent biofilm formation is specifically dependent upon G5 domain-mediated self-assembly, soluble Brpt1.5 was added to S. epidermidis RP62A biofilms as a maltose-binding protein (MBP) fusion. Because of the higher Zn^2+ concentrations required to induce dimerization in the short construct compared to full-length Aap, inhibition by MBP-Brpt1.5 was tested at Zn^2+ concentrations ranging up to 1 mM. RP62A biofilms were inhibited by soluble MBP-Brpt1.5 in the presence of 0.75 and 1 mM ZnCl2, whereas addition of MBP alone had no effect (FIG. 4A). […] Thus, addition of even a single intact zinc adhesion module in a soluble form is capable of inhibiting biofilm formation, highlighting the role of this domain as a Zn^2+-dependent adhesion module in staphylococcal biofilms.

Data set [6] relates to S. epidermidis RP62A biofilms. Described as above. It is filed as cell-based.
Data set [7] has as its system Methicillin-Resistant Staphylococcus aureus Strain USA300. The data set is described as follows: Biofilm formation assay in fibronectin pre-treated 96 well plates, crystal violet (Example 11). The class given is cell-based. Conditions: USA300, 2% glucose, 36-40 hours. On the procedure:
S. aureus strain USA300 was obtained from Daniel Hassett (University of Cincinnati) as a glycerol stock. 3 ml overnight cultures were grown in blood-heart infusion broth (BHI) shaking at 37° C., where cultures were diluted 1:25 for use in the biofilm assay. 2% glucose (20 ul from a 20% glucose stock) was added to each well prior to the addition of bacterial culture to promote biofilm formation. In addition, 96 well microtiter plates were pre-treated with human fibronectin (BD biomedical purchased from Fisher scientific). The fibronectin was aspirated prior to addition of chelators and glucose for the assay. Each chelator (prepared in Examples 1-6) was added directly to a 96 well microtiter plate in a series of dilutions. 20 μl of each stock solution (200, 400, 800, 1600, 3200, 6400, 13000, or 26000 μM chelator) was added to each well. 200 μl of the 1:25 dilution of USA300 bacterial culture dilution (as previously specified) were added to each well. Controls with bacterial culture media only and bacterial culture media plus vehicle controls only (final concentrations 10 mM HCl, 10% ethanol, and 10 mM NaOH) were added to wells alone without chelator. The 96 well plates were then incubated 36-40 hours statically at 37° C. Media was aspirated by pipet and wells were washed twice with filtered water. The plates were dried by inversion for 1 hour, and stained with 0.1% crystal violet for 15 minutes. Crystal violet was then aspirated by pipet and washed once with filtered water. The plates were then read on a spectrophotometer at a wavelength of 570 nm. An absorbance greater than 0.1 indicates biofilm formation.

Data set [8] deals with Staphylococcus aureus Strain Rosenbach SA113. The data set is described as follows: Biofilm formation assay in FBS pre-treated 96 well plates, crystal violet (Example 9). It is filed as cell-based. Particulars: SA113, 2% glucose, 36-40 hours. The method, then:
In addition, 96 well microtiter plates were pre-treated with fetal bovine serum (FBS) at 4° C. for at least 24 hours prior to use. The FBS was aspirated prior to addition of chelators and glucose for the assay. […] The 96 well plates were then incubated 36-40 hours statically at 37° C. Media was aspirated by pipet and wells were washed twice with filtered water. The plates were dried by inversion for 1 hour, and stained with 0.1% crystal violet for 15 minutes. Crystal violet was then aspirated by pipet and washed once with filtered water. The plates were then read on a spectrophotometer at a wavelength of 570 nm.

Data set [9] relates to Methicillin-Resistant Staphylococcus epidermidis Strain RP62a. The data set is described as follows: Biofilm formation assay in 96 well plates, crystal violet, absorbance at 570 nm (Example 8). It is filed as cell-based. Particulars: 18-24 hours, 37° C. The method, then:
S. epidermidis strain RP62a (ATCC 35984) was obtained as a glycerol stock from ATCC. 3 ml overnight cultures were grown in tryptic soy broth (TSB, BD Biomedical), shaking at 37° C., and cultures were diluted 1:200 in TSB for use in the biofilm assay.
Each chelator (prepared in Examples 1-6) was added directly to a 96 well microtiter plate in a series of dilutions. 20 μl of each stock solution (200, 400, 800, 1600, 3200, 6400, 13000, or 26000 μM chelator) was added to each well. 200 μl of the 1:200 dilution of RP62a bacterial culture (as previously specified) was added to each well. Controls with bacterial culture media only and bacterial culture media plus vehicle controls only (i.e., final concentrations 10 mM HCl, 10% ethanol, or 10 mM NaOH) were added to wells alone without chelator. The 96 well plates were then incubated 18-24 hours statically at 37° C. Media was aspirated by pipet and wells were washed twice with filtered water. The plates were dried by inversion for 1 hour, and stained with 0.1% crystal violet for 15 minutes. Crystal violet was then aspirated by pipet and washed once with filtered water. The plates were then read on a spectrophotometer at a wavelength of 570 nm. An absorbance greater than 0.1 indicates biofilm formation.

Data set [10] has as its system Methicillin-resistant S. aureus USA300 biofilms. Put plainly: USA300 biofilms on fibronectin-coated plates (FIG. 3B, 3D). The class given is cell-based. Conditions: USA300 on fibronectin-coated plates, FIG. 3B. The method, then: as §1
S. aureus strain USA300, which is responsible for recent epidemic outbreaks of community-acquired methicillin-resistant S. aureus (MRSA) infections, formed biofilms on fibronectin-coated plates. As observed for S. epidermidis, the MRSA biofilms were inhibited by Zn^2+ chelation (≧30 μM DTPA) (FIG. 3B). […] Like S. epidermidis, the MRSA strain USA300 could be rescued by the addition of 15-20 μM ZnCl2 (FIG. 3D). Importantly, at the minimal inhibitory concentration of DTPA (30 μM), biofilm growth by both staphylococcal species could be rescued by the addition of 5-20 μM ZnCl2; these Zn^2+ concentrations are similar to the physiological range in human plasma (12-16 μM resting concentration).

For data set [11] the following is noted: Mg; cited from earlier work.

Like-named read-outs stand apart in the source and are kept apart here.

`O=C(O)CN(CCN(CC(=O)O)CC(=O)O)CCN(CC(=O)O)CC(=O)O` [DTPA, diethylenetriaminepentaacetic acid]: the “affinity for DTPA (log K)” value in [1] is 9.68; in [2], 15.5; in [3] it was 10.74; in [4] it was 18.75; in [11], 9.3. In addition, the “concentration that inhibits biofilm formation” value in [5] and in [10] was at least 30 µM each time. For the same molecule, the “disruption of pre-formed biofilms” value in data set [6] is “did not disrupt”. Besides, the “chelator concentration at which biofilms were diminished but not cleared” value in [7] and in data set [9] was 20 µM each time. Also, the “chelator concentration at which biofilms were inhibited (absorbance of 0.1 or less)” value in [8] was 20 µM; in [9] it was 40 µM.

The values above are taken from patent US20110189260A1, “USE OF ZINC CHELATORS TO INHIBIT BIOFILM FORMATION” (UNIVERSITY OF CINCINNATI, priority 2008, published 2011).
